Assay results from patent US6197774A, “Pyrimidine derivative” (Otsuka Pharmaceutical Co., Ltd., priority 1997, dated 2001).

What was measured:
late asthmatic response = experiment: Model experiment of asthma in guinea pigs (inhibition of late asthmatic response); assay type: in vivo, guinea pig; conditions: 10 mg/Kg orally 30 minutes before antigen; 6 animals; control 112 ± 17.8
Experimental: [Model experiment of asthma in guinea pigs. (Inhibition of late asthmatic response)]
Hartley strain female guinea pigs (SLC) having the body weight of about 350 g were used and 50 mg/Kg of cyclophosphamide (mfd. by Sigma Chemical Co.) was injected intraperitoneally. 2 Days after this pretreatment by injection, 1 mg of egg albumin (mfd. by Sigma Chemical Co.) and 100 mg of aluminum hydroxide (Wako Pure Chemical Industries Co., Ltd.) were injected intraperitoneally for sensitization. 3 Weeks after the sensitization, 10 μg of egg albumin and 100 mg of aluminum hydroxide were injected intraperitoneally for booster sensitization. 6 Weeks after the primary sensitization, asthma attach was induced by inhalation and exposure to egg albumin (4 mg/ml) by using a nebulizer (NE-U12: mfd. by Omron Corp.). The asthma reaction was determined by use of a body-plethysmography (using system developed by Uchida lecturer in internal department for respiratory organs at Tsukuba University; air-resist tube, respiratory amplifier and differential pressure transducer (mfd. by Nihon Koden); and osciloscope (mfd. by Iwasaki Tsushin)), so as to determine a […] of specific airway conductance (sGaw) under the condition without anesthesia. The sGaw value just before the administration of test comopound was measured and the value is referred to as 100. Test compound was suspended in 1% HPMC (hydroxymethylpropylcellulose mfd. by Shinetsu Chemical), and was administered orally 30 minutes before the exposure with the antigen. Then, sGaw value was measured in each points until 7 hours after the exposure with the antigen.

[1] = MTT assay, index of toxicity for A 549 cells; assay type: cell-based; conditions: human, a549 cells, control 100.0, read-out: Ratio of optical absorbance
Experimental: Test was conducted in accordance with the method as described in J. Immunol. Methods, Vol. 94, pp. 57-68, (1986). Cell strain RAW 264.7 derived from the macrophage of mouse was incubated similarly as in the method of Test Example 1(1). After that, MTT reagent (5 mg/ml) in 1/10 amount of the culture medium was added to the cells, and incubated for 4 hours. The supernatant of culture medium was taken off, then the cells were collected by using 1% SDS solution and the optical absorbance at 570-630 nm of the SDS solution was measured.
Cell strain A 549 (ATCC) derived from human alveolar epithelium cells was placed on each one of the wells on a microplate having 24-wells so as to put the cells in an amount of 3×10^5 cells/U (well). The cells were incubated for 24 hours in F-12 Nutrient Mixture culture medium (mfd. by GIBCO) to which 10% of equine serum, 100 U/ml of penicillin (mfd. by Dainippon Pharmaceutical Co., Ltd.) and 100 μg/ml of streptomycin (mfd. by Dainippon Pharmaceutical Co., Ltd.) were added.
On the other hand, the test culture medium, containing the test compound of Example 1 was prepared similarly as in the reference culture medium, except adding the test compound (1×10^-5, 1×10^-6 and 1×10^-7 M) dissolved in dimethyl sulfoxide (DMSO) at the same time of inducers-addition.
The concentration of IL-8 formed in the supernatant of each one of the culture media after 24-hour incubation was measured by IL-8 ELISA Kit Human (mfd. by genzyme). Further, MTT assay was conducted by the similar method as described in Text Example 2 to determine the index of toxicity for cells.

## COCc1cc(=O)n2ncc(-c3ccc(Sc4ccccc4)cc3)c2[nH]1 [Example 1, 4,7-dihydro-5-methoxymethyl-7-oxo-3-(4-phenylthiophenyl)pyrazolo[1,5-a]pyrimidine]
Late asthmatic response
  AUC (4-7 hours) of sGaw reaction: 32.8 ± 9.2
[1]; 1 × 10^-5 M
  viability at 24 h, 10 µM: 126%
[1]; 1 × 10^-6 M
  viability at 24 h, 1 µM: 98.1%
[1]; 1 × 10^-7 M
  viability at 24 h, 0.1 µM: 108%
